Experimental data published in ChEMBL document CHEMBL1201862, “PubChem BioAssay data set” (2004).
Calls of active or inactive are those of the source. No stated cut-off is given here; in the data, actives have a measured IC50 and inactives only a lower limit.

Biological target: Envelope glycoprotein gp160 (Human immunodeficiency virus 1, UniProt Q6QLK5)
Assay: cell-free HIV fusion peptide-binding blockers – biochemical, uHTS, fluorescence dequenching, […] (AID 1986)

Envelope glycoprotein gp160, sequence (Q6QLK5 whole entry, the tested form may be a part): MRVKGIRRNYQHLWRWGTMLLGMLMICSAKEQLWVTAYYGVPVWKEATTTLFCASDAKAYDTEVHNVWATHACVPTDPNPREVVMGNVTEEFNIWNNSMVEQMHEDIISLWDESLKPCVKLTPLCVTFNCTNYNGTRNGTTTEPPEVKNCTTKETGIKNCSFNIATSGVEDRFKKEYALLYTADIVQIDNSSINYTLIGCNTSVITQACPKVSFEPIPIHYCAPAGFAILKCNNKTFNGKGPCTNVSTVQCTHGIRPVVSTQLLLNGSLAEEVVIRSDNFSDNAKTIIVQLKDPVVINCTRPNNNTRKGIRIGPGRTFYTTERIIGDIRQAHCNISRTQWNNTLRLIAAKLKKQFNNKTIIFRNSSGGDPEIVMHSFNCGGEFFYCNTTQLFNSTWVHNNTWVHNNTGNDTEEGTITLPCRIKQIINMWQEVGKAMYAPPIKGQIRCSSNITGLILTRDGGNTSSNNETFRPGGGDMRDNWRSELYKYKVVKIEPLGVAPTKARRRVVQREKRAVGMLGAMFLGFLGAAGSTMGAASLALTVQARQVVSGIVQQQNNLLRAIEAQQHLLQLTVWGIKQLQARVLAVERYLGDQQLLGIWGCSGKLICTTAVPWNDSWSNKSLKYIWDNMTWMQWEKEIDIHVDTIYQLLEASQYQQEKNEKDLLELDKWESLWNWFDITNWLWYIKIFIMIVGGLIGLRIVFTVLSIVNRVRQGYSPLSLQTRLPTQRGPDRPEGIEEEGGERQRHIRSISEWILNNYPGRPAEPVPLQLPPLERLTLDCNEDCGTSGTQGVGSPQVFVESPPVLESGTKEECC

COc1ccc(/C=C2/SC(=O)N(CCCCCC(=O)Nc3ccccc3C(=O)O)C2=S)cc1
IC50: 18 µM (active)

N#Cc1c(-c2ccccc2)nc(SCc2ccc(Cl)cc2)[nH]c1=O
IC50: 22.5 µM (active)

COc1cc(/C=N/Nc2ccc(Cl)c(C(=O)O)c2)ccc1OC(=O)c1ccccc1F
IC50: 26.2 µM (active)
